The values that follow come from patent US7538132B2, “Isoxazolo derivatives” (Hoffman-La Roche Inc., priority 2005, dated 2009).

The target in the assay is T1, GABA A receptor α5β3γ2 (hα5) (Homo sapiens, UniProt P18507+P31644).
T1 construct: expressed in transfected cells; host or cells: HEK293 (transiently transfected; membranes prepared from cell pellets)
As to the kind of experiment: [3H]flumazenil competition binding assay, human GABA A α5β3γ2 receptors. The note with it: displacement of [3H]flumazenil (0.5 nM) from membranes of HEK293 cells expressing human α5β3γ2; 1 hour at 4° C.; means of two determinations. As for the experimental part: The affinity of compounds at GABA A receptor subtypes was measured by competition for [3H]flumazenil (85 Ci/mmol; Roche) binding to HEK293 cells expressing rat (stably transfected) or human (transiently transfected) receptors of composition α1β3γ2, α2⊖3γ2, α3β3γ2 and α5β3γ2.
Cell pellets were suspended in Krebs-tris buffer (4.8 mM KCl, 1.2 mM CaCl2, 1.2 mM MgCl2, 120 mM NaCl, 15 mM Tris; pH 7.5; binding assay buffer), homogenized by polytron for ca. 20 sec on ice and centrifuged for 60 min at 4° C. (50000 g; Sorvall, rotor: SM24=20000 rpm). The cell pellets were resuspended in Krebs-tris buffer and homogenized by polytron for ca. 15 sec on ice. Protein was measured (Bradford method, Bio-Rad) and aliquots of 1 mL were prepared and stored at −80° C.
Assays were incubated to equilibrium for 1 hour at 4° C. and harvested onto GF/C uni-filters (Packard) by filtration using a Packard harvester and washing with ice-cold wash buffer (50 mM Tris; pH 7.5). After drying, filter-retained radioactivity was detected by liquid scintillation counting. Ki values were calculated using Excel-Fit (Microsoft) and are the means of two determinations.
For orientation: Loss of bound radioactivity is the signal in a displacement assay; it reports binding, not function.
One may read the Ki as a measure of affinity in units of concentration, obtained from inhibition or displacement. A lower Ki goes with higher affinity. In turn, `Cc1onc(-c2ccccc2)c1C(=O)c1c[nH]c(C(=O)NCC2CC2)c1` [Example 12, 4-(5-Methyl-3-phenyl-isoxazole-4-carbonyl)-1H-pyrrole-2-carboxylic acid cyclopropylmethyl-amide] returned a Ki of 0.0066 µM.

On to `Cc1onc(-c2ccccc2)c1C(=O)c1c[nH]c(C(=O)NC2CCC2)c1` [Example 15, 4-(5-Methyl-3-phenyl-isoxazole-4-carbonyl)-1H-pyrrole-2-carboxylic acid cyclobutylamide], for which affinity was put at a Ki of 0.00795 µM.

For the molecule `Cc1onc(-c2ccccc2)c1C(=O)c1c[nH]c(C(=O)NC2CCOCC2)c1` [Example 26, 4-(5-Methyl-3-phenyl-isoxazole-4-carbonyl)-1H-pyrrole-2-carboxylic acid (tetrahydro-pyran-4-yl)-amide], the affinity, expressed as Ki, was 0.00285 µM.

In the case of `Cc1onc(-c2ccc(Br)cc2)c1C(=O)c1c[nH]c(C(=O)NC2CCOCC2)c1` [Example 61, 4-[3-(4-Bromo-phenyl)-5-methyl-isoxazole-4-carbonyl]-1H-pyrrole-2-carboxylic acid (tetrahydro-pyran-4-yl)-amide], the inhibition constant Ki stood at 0.00365 µM.

In turn, `Cc1onc(-c2ccc(Br)cc2)c1C(=O)c1c[nH]c(C(=O)NC(C)C)c1` [Example 84, 4-[3-(4-Bromo-phenyl)-5-methyl-isoxazole-4-carbonyl]-1H-pyrrole-2-carboxylic acid isopropylamide] came in with a Ki of 0.00685 µM.

Molecule `Cc1onc(-c2ccc(Br)cc2)c1C(=O)c1c[nH]c(C(=O)N[C@H]2CC[C@H](O)CC2)c1` [Example 123, 4-[3-(4-Bromo-phenyl)-5-methyl-isoxazole-4-carbonyl]-1H-pyrrole-2-carboxylic acid (4-hydroxy-cyclohexyl)-amide] gave a Ki of 0.0045 µM.

Regarding `Cc1onc(-c2ccc(Br)cc2)c1C(=O)c1c[nH]c(C(=O)NC2CCOC(C)(C)C2)c1` (stereo not shown) [Example 135, 4-[3-(4-Bromo-phenyl)-5-methyl-isoxazole-4-carbonyl]-1H-pyrrole-2-carboxylic acid (2,2-dimethyl-tetrahydro-pyran-4-yl)-amide], the Ki stood at 0.0045 µM.

On to `Cc1onc(-c2ccc(F)cc2)c1C(=O)c1c[nH]c(C(=O)NC2CCCC2)c1` [Example 136, 4-[3-(4-Fluoro-phenyl)-5-methyl-isoxazole-4-carbonyl]-1H-pyrrole-2-carboxylic acid cyclopentylamide], for which affinity was put at a Ki of 0.00165 µM.

As for `Cc1onc(-c2ccc(F)cc2)c1C(=O)c1c[nH]c(C(=O)NC2CC2)c1` [Example 137, 4-[3-(4-Fluoro-phenyl)-5-methyl-isoxazole-4-carbonyl]-1H-pyrrole-2-carboxylic acid cyclopropylamide], the Ki is 0.0041 µM.

In turn, `Cc1onc(-c2ccc(F)cc2)c1C(=O)c1c[nH]c(C(=O)NC2CCC2)c1` [Example 138, 4-[3-(4-Fluoro-phenyl)-5-methyl-isoxazole-4-carbonyl]-1H-pyrrole-2-carboxylic acid cyclobutylamide] registered an inhibitory constant (Ki) of 0.0036 µM.

With `Cc1onc(-c2ccc(F)cc2)c1C(=O)c1c[nH]c(C(=O)NCCO)c1` [Example 140, 4-[3-(4-Fluoro-phenyl)-5-methyl-isoxazole-4-carbonyl]-1H-pyrrole-2-carboxylic acid (2-hydroxy-ethyl)-amide], the Ki worked out at 0.0099 µM.

With `Cc1onc(-c2ccc(F)cc2)c1C(=O)c1c[nH]c(C(=O)NCCc2cnc[nH]2)c1` [Example 141, 4-[3-(4-Fluoro-phenyl)-5-methyl-isoxazole-4-carbonyl]-1H-pyrrole-2-carboxylic acid [2-(1H-imidazol-4-yl)-ethyl]-amide], the affinity, expressed as Ki, was 0.00605 µM.

`C#CCNC(=O)c1cc(C(=O)c2c(-c3ccc(F)cc3)noc2C)c[nH]1` [Example 145, 4-[3-(4-Fluoro-phenyl)-5-methyl-isoxazole-4-carbonyl]-1H-pyrrole-2-carboxylic acid prop-2-ynylamide] gave a Ki of 0.00775 µM.

On to `Cc1onc(-c2ccc(F)cc2)c1C(=O)c1c[nH]c(C(=O)NC2CCOCC2)c1` [Example 146, 4-[3-(4-Fluoro-phenyl)-5-methyl-isoxazole-4-carbonyl]-1H-pyrrole-2-carboxylic acid (tetrahydro-pyran-4-yl)-amide], for which the Ki is 0.00155 µM.

Consider `Cc1onc(-c2ccc(Cl)cc2)c1C(=O)c1c[nH]c(C(=O)NC2CCCC2)c1` [Example 152, 4-[3-(4-Chloro-phenyl)-5-methyl-isoxazole-4-carbonyl]-1H-pyrrole-2-carboxylic acid cyclopentylamide], for which the Ki came out at 0.0052 µM.

`Cc1onc(-c2ccc(Cl)cc2)c1C(=O)c1c[nH]c(C(=O)NCCO)c1` [Example 153, 4-[3-(4-Chloro-phenyl)-5-methyl-isoxazole-4-carbonyl]-1H-pyrrole-2-carboxylic acid (2-hydroxy-ethyl)-amide] yielded a Ki of 0.00755 µM.

`Cc1onc(-c2ccc(Cl)cc2)c1C(=O)c1c[nH]c(C(=O)NC2CC2)c1` [Example 154, 4-[3-(4-Chloro-phenyl)-5-methyl-isoxazole-4-carbonyl]-1H-pyrrole-2-carboxylic acid cyclopropylamide]: the affinity, expressed as Ki, was 0.0061 µM.

In the case of `Cc1onc(-c2ccc(Cl)cc2)c1C(=O)c1c[nH]c(C(=O)NCC2CC2)c1` [Example 156, 4-[3-(4-Chloro-phenyl)-5-methyl-isoxazole-4-carbonyl]-1H-pyrrole-2-carboxylic acid cyclopropylmethyl-amide], the Ki was 0.00385 µM.

As for `C#CCNC(=O)c1cc(C(=O)c2c(-c3ccc(Cl)cc3)noc2C)c[nH]1` [Example 157, 4-[3-(4-Chloro-phenyl)-5-methyl-isoxazole-4-carbonyl]-1H-pyrrole-2-carboxylic acid prop-2-ynylamide], the Ki was 0.00745 µM.

Consider `Cc1onc(-c2ccc(Cl)cc2)c1C(=O)c1c[nH]c(C(=O)NCc2ccco2)c1` [Example 160, 4-[3-(4-Chloro-phenyl)-5-methyl-isoxazole-4-carbonyl]-1H-pyrrole-2-carboxylic acid (furan-2-ylmethyl)-amide], for which the affinity corresponds to a Ki of 0.0069 µM.

The molecule `Cc1onc(-c2ccc(Cl)cc2)c1C(=O)c1c[nH]c(C(=O)NC2CCOCC2)c1` [Example 162, 4-[3-(4-Chloro-phenyl)-5-methyl-isoxazole-4-carbonyl]-1H-pyrrole-2-carboxylic acid (tetrahydro-pyran-4-yl)-amide] displayed a Ki of 0.0014 µM.

As to `Cc1onc(-c2ccccc2F)c1C(=O)c1c[nH]c(C(=O)NC2CCCC2)c1` [Example 173, 4-[3-(2-Fluoro-phenyl)-5-methyl-isoxazole-4-carbonyl]-1H-pyrrole-2-carboxylic acid cyclopentylamide], the Ki was 0.0063 µM.

`Cc1onc(-c2cccc(F)c2)c1C(=O)c1c[nH]c(C(=O)NC2CCCC2)c1` [Example 178, 4-[3-(3-Fluoro-phenyl)-5-methyl-isoxazole-4-carbonyl]-1H-pyrrole-2-carboxylic acid cyclopentylamide] gave a Ki of 0.0061 µM.

Regarding `CCc1onc(-c2ccccc2)c1C(=O)c1c[nH]c(C(=O)NC2CCOCC2)c1` [Example 210, 4-(5-Ethyl-3-phenyl-isoxazole-4-carbonyl)-1H-pyrrole-2-carboxylic acid (tetrahydro-pyran-4-yl)-amide], the inhibition constant (Ki) is 0.00245 µM.

`CCc1onc(-c2ccccc2)c1C(=O)c1c[nH]c(C(=O)NC2CCCC2)c1` [Example 215, 4-(5-Ethyl-3-phenyl-isoxazole-4-carbonyl)-1H-pyrrole-2-carboxylic acid cyclopentylamide]: the affinity, expressed as Ki, was 0.0021 µM.
